This is an account of results in patent US8648086B2, “5,6-bicyclic heteroaryl-containing urea compounds as kinase inhibitors” (Ascepion Pharmaceuticals, Inc., priority 2009, dated 2014).

For the test, the target named is T1, EPHA2 (Homo sapiens, UniProt P29317).
T1 construct: purchased KINOMEscan service (Ambit Biosciences, San Diego)
Kind of test: KINOMEscan competition binding assay, EPHA2. As to conditions: compound at 100 nM; lower number indicates stronger hit. How it is done: A standard competition binding assay can be used to test the ability of a compound of this invention on competing with both intended and unintended kinases in vitro. To screen a compound against a large number of human kinases, a competition binding assay with an active-site dependent binding technology was performed by KINOMEscan service (Ambit Biosciences, San Diego, Cal., USA). Three components were combined in this assay—DNA-tagged kinase, immobilized ligand, and the test compound. The ability of the test compound to compete with the immobilized ligand was measured by quantitative PCR of the DNA of the DNA tag. A number of the compounds of this invention were screened at the concentration of 100 nM by this binding assay, and the results were reported as “% Ctrl,” and the lower number indicates stronger “hit” in this matrix.

T1 sequence (P29317 24-976): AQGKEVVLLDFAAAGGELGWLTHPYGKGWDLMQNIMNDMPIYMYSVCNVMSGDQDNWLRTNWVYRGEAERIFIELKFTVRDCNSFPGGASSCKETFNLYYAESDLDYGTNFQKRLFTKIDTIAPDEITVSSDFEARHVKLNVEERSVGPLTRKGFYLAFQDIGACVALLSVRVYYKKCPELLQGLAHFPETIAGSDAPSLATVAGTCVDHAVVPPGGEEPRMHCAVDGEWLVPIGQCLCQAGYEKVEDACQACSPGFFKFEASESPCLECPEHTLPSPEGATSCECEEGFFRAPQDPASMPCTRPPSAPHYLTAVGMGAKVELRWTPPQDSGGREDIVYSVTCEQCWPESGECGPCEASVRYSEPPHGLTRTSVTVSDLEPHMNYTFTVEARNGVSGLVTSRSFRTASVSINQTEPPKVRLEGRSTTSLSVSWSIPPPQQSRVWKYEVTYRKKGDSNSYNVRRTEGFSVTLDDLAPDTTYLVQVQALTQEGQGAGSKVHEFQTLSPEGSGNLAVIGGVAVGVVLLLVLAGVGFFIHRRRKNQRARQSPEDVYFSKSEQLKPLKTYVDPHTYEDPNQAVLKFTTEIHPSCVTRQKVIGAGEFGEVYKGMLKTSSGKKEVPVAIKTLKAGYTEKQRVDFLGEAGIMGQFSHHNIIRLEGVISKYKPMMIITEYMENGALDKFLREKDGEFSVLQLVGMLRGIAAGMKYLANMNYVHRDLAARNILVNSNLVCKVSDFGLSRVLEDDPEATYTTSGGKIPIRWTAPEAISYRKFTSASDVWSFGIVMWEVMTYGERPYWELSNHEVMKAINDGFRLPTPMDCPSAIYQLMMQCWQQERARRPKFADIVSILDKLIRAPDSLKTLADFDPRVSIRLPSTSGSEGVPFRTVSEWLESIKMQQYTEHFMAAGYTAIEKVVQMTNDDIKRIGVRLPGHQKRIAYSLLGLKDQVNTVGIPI

For the compound `Cl.O=C(Nc1cc(Cl)ccc1F)Nc1cccc2c1ccn2Cc1ccnc2[nH]ccc12` [Example 56, 1-(2-Fluoro-5-chlorophenyl)-3-[1-(1H-pyrrolo[2,3-b]pyridin-4-ylmethyl)-1H-indol-4-yl]urea hydrochloride], the “EPHA2 % Ctrl” value worked out at 12 % Ctrl.
